Reference: ChEMBL document CHEMBL4043088, “Design of novel HIV-1 protease inhibitors incorporating isophthalamide-derived P2-P3 ligands: Synthesis, biological evaluation and X-ray structural studies of inhibitor-HIV-1 protease complex” (Bioorg Med Chem, 2017)

How the values were obtained:
[1] = Inhibition of HIV1 protease using fluorogenic substrate by continuous fluorometric assay; parameters: species or system Human immunodeficiency virus 1
[2] = system: Human immunodeficiency virus 1; assay: Antiviral activity against HIV1 LAI infected in human MT2 cells assessed as reduction in p24 Gag protein production incubated for 6 days by automated chemiluminescent enzyme immunoassay; format: functional, cell-based; conditions: Human immunodeficiency virus 1, LAI, MT2, 144 h

Ki [1]	IC50 [2]	Compound
0.4 nM	109 nM	COc1ccc(S(=O)(=O)N(CC(C)C)C[C@@H](O)[C@H](Cc2ccccc2)NC(=O)c2cccc(C(=O)N3CC[C@H](c4nc(C)cs4)C3)c2)cc1
0.41 nM	33 nM	COc1ccc(S(=O)(=O)N(CC(C)C)C[C@@H](O)[C@H](Cc2ccccc2)NC(=O)c2cccc(C(=O)N3CCC[C@@H]3c3nc(C)co3)c2)cc1
0.76 nM	32 nM	COc1ccc(S(=O)(=O)N(CC(C)C)C[C@@H](O)[C@H](Cc2ccccc2)NC(=O)c2cccc(C(=O)N3CSC[C@@H]3c3nc(C)cs3)c2)cc1
30.8 nM	> 1000 nM	COc1ccc(S(=O)(=O)N(CC(C)C)C[C@@H](O)[C@H](Cc2ccccc2)NC(=O)c2cccc(C(=O)N3CCC[C@H]3c3nc(C)cs3)c2)cc1
2.5 nM	–	COc1ccc(S(=O)(=O)N(CC(C)C)C[C@@H](O)[C@H](Cc2ccccc2)NC(=O)c2cncc(C(=O)N3CCC[C@@H]3c3nc(C)cs3)c2)cc1
0.53 nM	221 nM	COc1ccc(S(=O)(=O)N(CC(C)C)C[C@@H](O)[C@H](Cc2ccccc2)NC(=O)c2cccc(C(=O)N3CCCC[C@@H]3c3nc(C)cs3)c2)cc1
23.6 nM	–	COc1ccc(S(=O)(=O)N(CC(C)C)C[C@@H](O)[C@H](Cc2ccccc2)NC(=O)c2cccc(CN3CCC[C@@H]3c3nc(C)cs3)c2)cc1
0.49 nM	280 nM	COc1ccc(S(=O)(=O)N(CC(C)C)C[C@@H](O)[C@H](Cc2ccccc2)NC(=O)c2cccc(C(=O)N3CC[C@@H](c4nc(C)cs4)C3)c2)cc1
1.61 nM	189 nM	Cc1csc([C@H]2CCCN2C(=O)c2cccc(C(=O)N[C@@H](Cc3ccccc3)[C@H](O)CN(CC(C)C)S(=O)(=O)c3ccc(N)cc3)c2)n1
0.79 nM	164 nM	Cc1csc([C@H]2CCCN2C(=O)c2cccc(C(=O)N[C@@H](Cc3ccccc3)[C@H](O)CN(CC(C)C)S(=O)(=O)c3ccc(CO)cc3)c2)n1

The remaining lines, values behind:

Compound	Ki [1]	IC50 [2]
COc1ccc(S(=O)(=O)N(CC(C)C)C[C@@H](O)[C@H](Cc2ccccc2)NC(=O)c2ccccc2C(=O)N(C)Cc2nc(C)oc2C)cc1	629 nM	> 1000 nM
COc1ccc(S(=O)(=O)N(CC(C)C)C[C@@H](O)[C@H](Cc2ccccc2)NC(=O)c2cccc(C(=O)N3CCC[C@@H]3c3nc(C)cs3)c2)cc1	0.025 nM	69 nM
COc1ccc(S(=O)(=O)N(CC(C)C)C[C@@H](O)[C@H](Cc2ccccc2)NC(=O)c2cccc(C(=O)N(C)Cc3nc(C)oc3C)c2)cc1	0.21 nM	31 nM
COc1ccc(S(=O)(=O)N(CC(C)C)C[C@@H](O)[C@H](Cc2ccccc2)NC(=O)c2cccc(C(=O)N(C)Cc3coc(C)n3)c2)cc1	0.64 nM	23 nM
COc1ccc(S(=O)(=O)N(CC(C)C)C[C@@H](O)[C@H](Cc2ccccc2)NC(=O)c2cccc(C(=O)N(C)Cc3nc(C)co3)c2)cc1	0.63 nM	581 nM
COc1ccc(S(=O)(=O)N(CC(C)C)C[C@@H](O)[C@H](Cc2ccccc2)NC(=O)c2ccc(C(=O)N(C)Cc3nc(C)oc3C)cc2)cc1	70 nM	> 1000 nM
COCc1coc([C@H]2CCCN2C(=O)c2cccc(C(=O)N[C@@H](Cc3ccccc3)[C@H](O)CN(CC(C)C)S(=O)(=O)c3ccc(OC)cc3)c2)n1	0.8 nM	327 nM
COc1ccc(S(=O)(=O)N(CC(C)C)C[C@@H](O)[C@H](Cc2ccccc2)NC(=O)c2cc(O)cc(C(=O)N(C)Cc3nc(C)oc3C)c2)cc1	0.51 nM	290 nM
CNc1cc(C(=O)N[C@@H](Cc2ccccc2)[C@H](O)CN(CC(C)C)S(=O)(=O)c2ccc(OC)cc2)cc(C(=O)N(C)Cc2nc(C)oc2C)c1	5.08 nM	600 nM
COc1ccc(S(=O)(=O)N(CC(C)C)C[C@@H](O)[C@H](Cc2ccccc2)NC(=O)c2cccc(C(=O)N(C)Cc3csc(C)n3)c2)cc1	0.107 nM	32 nM
